According to the supplement of paper PMC10307832:

Assays:
Test in all cases: relative viability (nuclei count vs DMSO), 5 days (fraction); higher = more cells survive
BAY61-3606 + Foretinib = compound: COC1=C(C=C(C=C1)C2=CC3=NC=CN3C(=N2)NC4=C(C=CC=N4)C(=O)N)OC [BAY61-3606] + COc1cc2c(Oc3ccc(NC(=O)C4(C(=O)Nc5ccc(F)cc5)CC4)cc3F)ccnc2cc1OCCCN1CCOCC1 [Foretinib] (partner 0.25 µM)
Summary of the method: (§1)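 The day after seeding in 1536-well plates, lung cancer cell lines were treated by pin tool with a single drug, or with a fixed anchor-drug dose together with five library-drug doses (not always all listed) in √10 steps. After 5 days, a combined fix-and-stain solution (final 0.05% Triton X-100, 1% formaldehyde, 1 ug/ml Hoechst) was added. Nuclei counted on 4× images gave relative viability as treated counts over vehicle counts, reported as the median of duplicate plates.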

BAY61-3606 + Crizotinib = compound: COC1=C(C=C(C=C1)C2=CC3=NC=CN3C(=N2)NC4=C(C=CC=N4)C(=O)N)OC [BAY61-3606] + C[C@@H](Oc1cc(-c2cnn(C3CCNCC3)c2)cnc1N)c1c(Cl)ccc(F)c1Cl [Crizotinib] (partner 1 µM)
Summary of the method: as §1

BAY61-3606 + Linsitinib = compound: COC1=C(C=C(C=C1)C2=CC3=NC=CN3C(=N2)NC4=C(C=CC=N4)C(=O)N)OC [BAY61-3606] + C[C@]1(O)C[C@@H](c2nc(-c3ccc4ccc(-c5ccccc5)nc4c3)c3c(N)nccn32)C1 [Linsitinib] (partner 1 µM)
Summary of the method: as §1

Doxorubicin + Pictilisib = compound: COc1cccc2c1C(=O)c1c(O)c3c(c(O)c1C2=O)C[C@@](O)(C(=O)CO)C[C@@H]3O[C@H]1C[C@H](N)[C@H](O)[C@H](C)O1 [Doxorubicin] + CS(=O)(=O)N1CCN(Cc2cc3nc(-c4cccc5[nH]ncc45)nc(N4CCOCC4)c3s2)CC1 [Pictilisib] (partner 1 µM)
Summary of the method: as §1

Cell Line | relative viability (BAY61-3606 + Foretinib; first compound 0.02 µM) | relative viability (BAY61-3606 + Foretinib; first compound 0.06325 µM) | relative viability (BAY61-3606 + Foretinib; first compound 0.2 µM) | relative viability (BAY61-3606 + Foretinib; first compound 0.6325 µM) | relative viability (BAY61-3606 + Foretinib; first compound 2 µM) | relative viability (BAY61-3606 + Crizotinib; first compound 0.02 µM) | relative viability (BAY61-3606 + Crizotinib; first compound 0.06325 µM) | relative viability (BAY61-3606 + Crizotinib; first compound 0.2 µM) | relative viability (BAY61-3606 + Crizotinib; first compound 0.6325 µM) | relative viability (BAY61-3606 + Crizotinib; first compound 2 µM) | relative viability (BAY61-3606 + Linsitinib; first compound 0.02 µM) | relative viability (BAY61-3606 + Linsitinib; first compound 0.06325 µM) | relative viability (BAY61-3606 + Linsitinib; first compound 0.2 µM) | relative viability (BAY61-3606 + Linsitinib; first compound 0.6325 µM) | relative viability (BAY61-3606 + Linsitinib; first compound 2 µM) | relative viability (Doxorubicin + Pictilisib; first compound 0.001 µM) | relative viability (Doxorubicin + Pictilisib; first compound 0.003162 µM) | relative viability (Doxorubicin + Pictilisib; first compound 0.01 µM) | relative viability (Doxorubicin + Pictilisib; first compound 0.03162 µM) | relative viability (Doxorubicin + Pictilisib; first compound 0.1 µM)
NCI-H2342 | 1.03 | 1.05 | 1.02 | 1.22 | 0.957 | – | – | – | – | – | – | – | – | – | – | – | – | – | – | –
HCC-15 | 0.99 | 0.981 | 0.963 | 1.05 | 0.83 | 0.835 | 0.834 | 0.806 | 0.836 | 0.779 | 0.964 | 0.988 | 0.814 | 0.876 | 0.725 | 0.663 | 0.759 | 0.614 | 0.467 | 0.478
A-427 | 1.16 | 1.01 | 1.04 | 1.24 | 0.925 | 0.85 | 0.767 | 0.878 | 0.97 | 0.845 | 1.14 | 1.07 | 1.06 | 1.06 | 1.15 | 0.664 | 0.818 | 0.723 | 0.636 | 0.791
NCI-H2347 | 1.03 | 0.601 | 1.46 | 0.856 | 1.17 | 0.749 | 0.589 | 0.781 | 0.848 | 0.756 | 1.03 | 0.97 | 0.978 | 1.03 | 0.898 | 0.563 | 0.598 | 0.803 | 0.615 | 0.635
NCI-H1755 | 0.932 | 0.867 | 0.974 | 0.913 | 0.882 | 0.787 | 0.786 | 0.839 | 0.982 | 0.721 | 1.06 | 1.04 | 1.03 | 0.981 | 0.974 | 0.342 | 0.508 | 0.451 | 0.444 | 0.44
SK-LU-1 | 0.863 | 0.863 | 0.745 | 0.758 | 0.408 | 1.08 | 0.853 | 0.904 | 0.889 | 0.398 | 1.13 | 1.21 | 0.987 | 0.984 | 0.482 | 0.571 | 0.562 | 0.434 | 0.324 | 0.303
NCI-H1975 | 1.06 | 0.931 | 0.874 | 0.974 | 0.65 | 0.921 | 0.947 | 0.907 | 0.888 | 0.585 | 1.1 | 0.813 | 0.891 | 0.837 | 0.615 | 0.292 | 0.3 | 0.237 | 0.177 | 0.198
NCI-H1703 | 0.337 | – | 0.315 | 0.316 | 0.346 | 0.76 | 0.449 | 0.661 | 0.353 | 0.343 | 0.596 | 0.389 | 0.842 | 0.808 | 0.341 | 0.258 | 0.227 | 0.189 | 0.177 | 0.136
HCC-44 | – | – | – | – | – | 0.749 | 0.829 | 0.777 | 0.907 | 0.823 | 0.636 | 0.695 | 0.722 | 0.762 | 0.751 | 0.722 | 0.66 | 0.58 | 0.531 | 0.527
NCI-H1793 | 0.79 | 0.674 | – | 0.692 | 0.476 | – | – | – | – | – | 0.797 | 0.892 | 1 | 1.27 | 0.89 | – | 0.365 | 0.417 | 0.309 | 0.301
NCI-H596 | 0.768 | 0.761 | 0.841 | 0.844 | 0.726 | 0.969 | 1.01 | 1.08 | 1.19 | 0.931 | 1.16 | 0.962 | 1 | 1.02 | 0.954 | 0.353 | 0.436 | 0.41 | 0.44 | 0.379
PC-3 [JPC-3] | – | 1.03 | 1.08 | 1.06 | 0.949 | 1.03 | 0.961 | 0.979 | 0.96 | 0.944 | 0.895 | 0.906 | 0.947 | 1.01 | 0.93 | 0.774 | 0.842 | 0.758 | 0.713 | 0.702
HCC-366 | 0.934 | 0.942 | 0.93 | 0.924 | 0.893 | 0.506 | 0.495 | 0.566 | 0.461 | 0.162 | 0.831 | 0.613 | 0.689 | 0.694 | 0.366 | 0.155 | 0.182 | 0.119 | 0.162 | 0.162
NCI-H1623 | 0.841 | 0.919 | 0.896 | 0.864 | 0.846 | – | – | – | – | – | – | – | – | – | – | – | – | – | – | –
Calu-6 | 0.894 | 0.905 | 0.793 | 0.773 | 0.617 | 0.765 | 0.77 | 0.67 | 0.732 | 0.352 | 0.977 | 1.02 | 0.893 | 0.901 | 0.759 | 0.919 | 0.799 | 0.516 | 0.263 | 0.172
LCLC-103H | 0.81 | 0.83 | 0.832 | 0.701 | 0.681 | 1.07 | 0.997 | 1.02 | 1.08 | 1.02 | 1.07 | 1.13 | 1.12 | 1.37 | 1.13 | 0.618 | 0.677 | 0.569 | 0.588 | 0.578
CAL-12T | 1.12 | 1.19 | 1 | 1.19 | 0.656 | 0.619 | 0.537 | 0.493 | 0.364 | 0.205 | 0.903 | 0.755 | 0.818 | 0.85 | 0.388 | 0.508 | 0.559 | 0.402 | 0.343 | 0.25
NCI-H23 | 1.05 | 0.907 | 1.01 | 1.03 | 0.874 | 0.53 | 0.283 | 0.505 | 0.486 | 0.264 | 0.613 | 0.689 | 0.609 | 0.881 | 0.423 | – | 0.475 | 0.462 | 0.375 | 0.401
